Laboratory results: patent US11608323B2 (SYNGENTA LIMITED, priority 2013, dated 2023)

Key:
Format in all cases: in vivo
[1] = tested on: SETFA; assay: Pre-emergence herbicidal activity, glasshouse pot test; conditions: rate 1000 g/Ha, evaluated after 13 days, scale 0-5
Procedure: (§1) Seeds of a variety of test species were sown in standard soil in pots. After cultivation for one day (pre-emergence) under controlled conditions in a glasshouse (at 24/16° C., day/night; 14 hours light; 65% humidity), the plants were sprayed with an aqueous spray solution derived from the formulation of the technical active ingredient in acetone/water (50:50) solution containing 0.5% Tween 20 (polyoxyethelyene sorbitan monolaurate, CAS RN 9005-64-5). The test plants were then grown in a glasshouse under controlled conditions (at 24/16° C., day/night; 14 hours light; 65% humidity) and watered twice daily. After 13 days, the test was evaluated (5=total damage to plant; 0=no damage to plant).

[2] = tested on: ZEAMX; assay: as above; conditions: rate 1000 g/Ha, evaluated after 13 days, scale 0-5
Procedure: as §1

[3] = tested on: ECHCG; assay: as above; conditions: rate 1000 g/Ha, evaluated after 13 days, scale 0-5
Procedure: as §1

[4] = tested on: AMARE; assay: as above; conditions: rate 1000 g/Ha, evaluated after 13 days, scale 0-5
Procedure: as §1

[5] = tested on: ABUTH; assay: as above; conditions: rate 1000 g/Ha, evaluated after 13 days, scale 0-5
Procedure: as §1

[6] = tested on: SETFA; assay: Post-emergence herbicidal activity, glasshouse pot test; conditions: Setaria faberi; application post-emergence; rate 1000 g/Ha; evaluated after 13 days
Procedure: (§2) Seeds of a variety of test species were sown in standard soil in pots. After 8 days cultivation (post-emergence) under controlled conditions in a glasshouse (at 24/16° C., day/night; 14 hours light; 65% humidity), the plants were sprayed with an aqueous spray solution derived from the formulation of the technical active ingredient in acetone/water (50:50) solution containing 0.5% Tween 20 (polyoxyethelyene sorbitan monolaurate, CAS RN 9005-64-5). The test plants were then grown in a glasshouse under controlled conditions (at 24/16° C., day/night; 14 hours light; 65% humidity) and watered twice daily. After 13 days, the test was evaluated (5=total damage to plant; 0=no damage to plant).

[7] = tested on: ZEAMX; assay: as above; conditions: Zea mays; application post-emergence; rate 1000 g/Ha; evaluated after 13 days
Procedure: as §2

[8] = tested on: ECHCG; assay: as above; conditions: Echinochloa crus-galli; application post-emergence; rate 1000 g/Ha; evaluated after 13 days
Procedure: as §2

[9] = tested on: AMARE; assay: as above; conditions: Amaranthus retroflexus; application post-emergence; rate 1000 g/Ha; evaluated after 13 days
Procedure: as §2

[10] = tested on: ABUTH; assay: as above; conditions: Abutilon theophrasti; application post-emergence; rate 1000 g/Ha; evaluated after 13 days
Procedure: as §2

| SMILES | SETFA damage score, application pre-emergence [1] | ZEAMX damage score, application pre-emergence [2] | ECHCG damage score, application pre-emergence [3] | AMARE damage score, application pre-emergence [4] | ABUTH damage score, application pre-emergence [5] | Post-emergence herbicidal activity SETFA (damage score 0-5) [6] | Post-emergence herbicidal activity ZEAMX (damage score 0-5) [7] | Post-emergence herbicidal activity ECHCG (damage score 0-5) [8] | Post-emergence herbicidal activity AMARE (damage score 0-5) [9] | Post-emergence herbicidal activity ABUTH (damage score 0-5) [10] |
| --- | --- | --- | --- | --- | --- | --- | --- | --- | --- | --- |
| C[C@@H]1C(O)N(c2cc(C(F)(F)F)ccn2)C(=O)N1C (mixture of isomers) [Compound A38, (4R,5R)-4-hydroxy-1,5-dimethyl-3-[4-(trifluoromethyl)-2-pyridyl]imidazolidin-2-one and (4S,5R)-4-hydroxy-1,5-dimethyl-3-[4-(trifluoromethyl)-2-pyridyl]imidazolidin-2-one] | 5 | 3 | 5 | 5 | 5 | 5 | 4 | 5 | 5 | 5 |
| CCO[C@@H]1C(O)N(c2cc(C(F)(F)F)ccn2)C(=O)N1C (single isomer, unassigned) [Compound A34] | 5 | 3 | 5 | 5 | 5 | 5 | 4 | 5 | 5 | 5 |
| CCO[C@H]1C(O)N(c2cc(C(F)(F)F)ccn2)C(=O)N1C (single isomer, unassigned) [Compound A35] | 4 | 2 | 4 | 5 | 4 | 3 | 1 | 3 | 5 | 0 |
| CC1C(O)N(c2cc(C(F)(F)C(F)(F)F)ccn2)C(=O)N1C (single isomer, unassigned) [Compound A72] | 5 | 2 | 5 | 5 | 5 | 5 | 2 | 5 | 5 | 5 |
| CON1C(=O)N(c2cc(C(C)(F)F)ccn2)C(O)C1C (single isomer, unassigned) [Compound A93] | 5 | 3 | 5 | 5 | 5 | 5 | 4 | 5 | 5 | 5 |
| O=C1N2COCC2C(O)N1c1cc(C(F)(F)F)ccn1 (single isomer, unassigned) [Compound A94] | 5 | 4 | 5 | 5 | 5 | 5 | 5 | 5 | 5 | 5 |
| C=CC1C(O)N(c2cc(C(F)(F)F)ccn2)C(=O)N1C (stereo not drawn) [Compound A31] | 5 | 2 | 5 | 5 | 5 | 5 | 4 | 5 | 5 | 5 |
| C=Cc1cnc(N2C(=O)N(C)C(C)C2O)cc1C(F)(F)F (stereo not drawn) [Compound A62] | 3 | 2 | 4 | 5 | 4 | 5 | 2 | 5 | 5 | 5 |
| CC1C(O)N(c2cc(C(F)(F)F)ccn2)C(=O)N1O (stereo not drawn) [Compound A64] | 3 | 2 | 4 | 5 | 2 | 4 | 1 | 5 | 5 | 4 |
| CC1C(O)N(c2cc(C(F)(F)F)c(C(=O)NC(C)(C)C)cn2)C(=O)N1C (stereo not drawn) [Compound A65] | 5 | 3 | 5 | 5 | 5 | 5 | 5 | 5 | 5 | 5 |
| CON1C(=O)N(c2ccc(C(=O)NC(C)(C)C)cn2)C(O)C1C (stereo not drawn) [Compound A66] | 4 | 2 | 5 | 5 | 5 | 5 | 5 | 5 | 5 | 5 |
| CC1C(O)N(c2ccc(C(=O)NC(C)(C)C)cn2)C(=O)N1C (stereo not drawn) [Compound A67] | 5 | 3 | 5 | 5 | 5 | 5 | 4 | 5 | 5 | 5 |
